Values quoted from earlier work, collected in patent US6057161A (priority 1997, dated 2000).
Read-outs that look alike come from different tables or passages of the source.

SMILES: CCCCCc1cc(O)c2c(c1)OC(C)(C)[C@@H]1CCC(C(=O)O)=C[C@@H]21 [THC-COOH]
- metabolism, accumulation or excretion (in words) (body): excreted in the urine as a glucuronic acid conjugate at detectable levels

SMILES: CN1[C@H]2CC[C@@H]1[C@@H](C(=O)O)[C@@H](OC(=O)c1ccccc1)C2 [Benzoylecgonine]
- metabolism, accumulation or excretion (in words) (body): can be detected in the urine for a longer period of time than ecgonine methyl ester

SMILES: CN1CC[C@]23c4c5ccc(O[C@@H]6O[C@H](C(=O)O)[C@@H](O)[C@H](O)[C@H]6O)c4O[C@H]2[C@@H](O)C=C[C@H]3[C@H]1C5 [Morphine-3-glucoronide, morphine-3-glucuronide]
- time found in the urine after administration of heroin (in vivo): up to 40 hours

SMILES: COC(=O)[C@H]1[C@@H](OC(=O)c2ccccc2)C[C@@H]2CC[C@H]1N2C [Cocaine]
- metabolism, accumulation or excretion (in words) (in vivo): rapidly metabolized in the body

SMILES: CN1CC[C@]23c4c5ccc(O)c4O[C@H]2[C@@H](O)C=C[C@H]3[C@H]1C5 [Morphine]
- time found in the urine after administration of heroin (in vivo): up to 40 hours
